The values that follow come from PMC8058733, “A pain killer without analgesic tolerance designed by co-targeting PSD-95-nNOS interaction and α2-containning GABAARs” (Theranostics, 2021).

The structures appear in SMILES notation.

Experiment [1] concerns laminae I excitatory neurons in the SDH. Put plainly: mIPSCs/mEPSCs recordings from acute spinal slices of chronically treated rats. It is filed as in vivo, rat. As to conditions: SNL rats, ZL006 0.2 mg/d intrathecal × 11 days. From the text:
(§1) Osmotic minipumps (models 1004 for mouse and 2ML4 for rat; Alzet) and intrathecal cannulas (0.61 mm outer diameter and 0.28 mm inner diameter for mouse, 0.99 mm outer diameter and 0.58 mm inner diameter for rat) were filled with a solution of PBS. Cannulas were inserted into the subarachnoid space through the space between the L5 and L6 vertebrae and the tip of the catheter was implanted at the L5 spinal segmental level.
All solutions were bubbled with 95% O2 -5% CO2.
For mPSCs measurements, whole-cell recordings were made from putative excitatory neurons in superficial dorsal horn using low-resistance pipettes (4-8 MΩ). Before mPSCs measurements, excitatory neurons were distinguished from inhibitory neurons by firing pattern analysis according to the established relationship between neuronal firing pattern and its neurotransmitter phenotype, [32]-[34] For mEPSCs measurement, the membrane potential was held at -60 mV. […] Tetrodotoxin (0.5 μM) and bicuculline (20 μM) were added to block action potentials and GABAA receptor-mediated currents respectively. For mIPSCs measurement, the membrane potential was held at -70 mV, microelectrodes were filled with internal pipette solution containing CsCl 140, HEPES 10.0, MgATP 4.0, NaGTP 3.0, EGTA 1.0, MgCl2 1.0, CaCl2 0.3 (in mM). […]. […] Each recording lasts more than 5 min. Data were analyzed using Mini software. Up to 120 events from each neuron were selected at a fixed sampling interval to generate cumulative probability.

Experiment [2] has as its system SNL-induced thermal hyperalgesia. Put plainly: SNL-induced thermal hyperalgesia, paw withdrawal latency. Format: in vivo, mice. As to conditions: WT and nNOS-/- mice, ZL006 i.v., 20 mg/kg. The protocol:
Neuropathic pain was induced by segmental spinal nerve ligation (SNL). Animals were anesthetized with isoflurane. After the loss of righting reflex, the animal was fixed in the prone position. The SNL model was prepared as described previously: a median skin incision with about 3-5 cm length in L4-S2 level of the mouse back was made, the muscles next to the vertebrae till the sixth lumbar protruding were separated, the L5/L6 joint protruding on the right side was exposed and excised, and L6 processus transversus was partially split so that the L4-L6 spinal nerves on the right side were exposed. L5 nerve was gently isolated and tightly ligated with 5-0 silk thread. […]
(§2) Paw withdrawal latency (PWL) response to thermal stimulus was assessed through the Hargreaves test. […] To record the PWL in response to thermal stimulus, each animal was measured five times with a 5-min interval, and the mean value was recorded after excluding maximal and minimum values. […]
(A) Time course of SNL-induced thermal hyperalgesia after treating with ZL006-05 (60 mg/kg, i.g.) in mice. Paw withdrawal latency response to thermal stimulation was detected at 0, 1, 2, 4, 6, 8, 10, 12 and 24 h after drug administration. ( B) Areas under the curve of paw withdrawal latency 0-24 h after treatment calculated from ( A) (F (1,16) = 43.07, ***p < 0.001, two-tailed t-test, n = 9). […]

The test system is the same in experiment [3]. Put plainly: SNL-induced thermal hyperalgesia, paw withdrawal latency (Hargreaves). It is filed as in vivo, rat. As to conditions: SNL rats, ZL006 0.2 mg/d intrathecal infusion × 11 days. The protocol: (§3) Neuropathic pain was induced by segmental spinal nerve ligation (SNL). Animals were anesthetized with isoflurane. After the loss of righting reflex, the animal was fixed in the prone position. The SNL model was prepared as described previously: a median skin incision with about 3-5 cm length in L4-S2 level of the mouse back was made, the muscles next to the vertebrae till the sixth lumbar protruding were separated, the L5/L6 joint protruding on the right side was exposed and excised, and L6 processus transversus was partially split so that the L4-L6 spinal nerves on the right side were exposed. L5 nerve was gently isolated and tightly ligated with 5-0 silk thread. The wound was closed with 4-0 silk thread suture and covered with iodine solution. After nerve ligation, animals with signs of paw clonus or autotomy were excluded from further experiments.
Osmotic minipumps (models 1004 for mouse and 2ML4 for rat; Alzet) and intrathecal cannulas (0.61 mm outer diameter and 0.28 mm inner diameter for mouse, 0.99 mm outer diameter and 0.58 mm inner diameter for rat) were filled with a solution of PBS. […]
as §2

Experiment [4] deals with SNL-induced mechanical hyperalgesia. In words: SNL-induced mechanical hyperalgesia, von Frey. Format: in vivo, mice. To be noted: WT and nNOS-/- mice, ZL006 i.v., 20 mg/kg. As to the method:
as §3
For mice, the threshold for 50% PWT response to mechanical stimulus was quantified by assessing the paw withdrawal threshold using von Frey filaments (Touch-Test TM Sensory Evaluator, North coast Medical, Inc.). Mice were placed individually in a plastic cage (4.5 × 5 × 11 cm) with a wire mesh bottom which allowed full access to the paws. Behavioral accommodation was allowed for 20-30 min until cage exploration and major grooming activities ceased. Mechanical threshold was measured by applying a von Frey filament to the ventral surface of the right hind paw until a positive sign of pain behavior was elicited. The paradigm for assessing the threshold was as follows. Von Frey filaments with logarithmically incremental stiffness (0.02-2 g) were applied serially to the paw by the up-down method. The filaments were presented, in ascending order of strength, perpendicular to the plantar surface with sufficient force to causes light bending against the paw and held for 4s. A positive response was noted if the paw was sharply withdrawn. Flinching immediately upon removal of the hair was also considered a positive response. The 2-g filament was selected as the upper limit cut-off for testing. If there was no response at 2-g filament, animals were assigned this cut-off value. The pattern of positive and negative withdrawal responses was converted to 50% threshold according to the formula: 50% PWT = 10 log (X) + κδ. X = value (in log unit) of the final von Frey hair used; κ is correction factors based on the pattern of responses from the calibration table; δ = mean difference in log units between stimuli (here, 0.224).

In experiment [5] the target is T1, PSD-95-nNOS complex (Rattus norvegicus, UniProt P29476).
T1 construct: dorsal spinal cord tissues (L4 and L5) were lysed in 400 μl RIPA; from tissue; host or cells: rat dorsal spinal cord (L4 and L5), SNL model
T1 sequence (P29476 whole entry, one chain of several): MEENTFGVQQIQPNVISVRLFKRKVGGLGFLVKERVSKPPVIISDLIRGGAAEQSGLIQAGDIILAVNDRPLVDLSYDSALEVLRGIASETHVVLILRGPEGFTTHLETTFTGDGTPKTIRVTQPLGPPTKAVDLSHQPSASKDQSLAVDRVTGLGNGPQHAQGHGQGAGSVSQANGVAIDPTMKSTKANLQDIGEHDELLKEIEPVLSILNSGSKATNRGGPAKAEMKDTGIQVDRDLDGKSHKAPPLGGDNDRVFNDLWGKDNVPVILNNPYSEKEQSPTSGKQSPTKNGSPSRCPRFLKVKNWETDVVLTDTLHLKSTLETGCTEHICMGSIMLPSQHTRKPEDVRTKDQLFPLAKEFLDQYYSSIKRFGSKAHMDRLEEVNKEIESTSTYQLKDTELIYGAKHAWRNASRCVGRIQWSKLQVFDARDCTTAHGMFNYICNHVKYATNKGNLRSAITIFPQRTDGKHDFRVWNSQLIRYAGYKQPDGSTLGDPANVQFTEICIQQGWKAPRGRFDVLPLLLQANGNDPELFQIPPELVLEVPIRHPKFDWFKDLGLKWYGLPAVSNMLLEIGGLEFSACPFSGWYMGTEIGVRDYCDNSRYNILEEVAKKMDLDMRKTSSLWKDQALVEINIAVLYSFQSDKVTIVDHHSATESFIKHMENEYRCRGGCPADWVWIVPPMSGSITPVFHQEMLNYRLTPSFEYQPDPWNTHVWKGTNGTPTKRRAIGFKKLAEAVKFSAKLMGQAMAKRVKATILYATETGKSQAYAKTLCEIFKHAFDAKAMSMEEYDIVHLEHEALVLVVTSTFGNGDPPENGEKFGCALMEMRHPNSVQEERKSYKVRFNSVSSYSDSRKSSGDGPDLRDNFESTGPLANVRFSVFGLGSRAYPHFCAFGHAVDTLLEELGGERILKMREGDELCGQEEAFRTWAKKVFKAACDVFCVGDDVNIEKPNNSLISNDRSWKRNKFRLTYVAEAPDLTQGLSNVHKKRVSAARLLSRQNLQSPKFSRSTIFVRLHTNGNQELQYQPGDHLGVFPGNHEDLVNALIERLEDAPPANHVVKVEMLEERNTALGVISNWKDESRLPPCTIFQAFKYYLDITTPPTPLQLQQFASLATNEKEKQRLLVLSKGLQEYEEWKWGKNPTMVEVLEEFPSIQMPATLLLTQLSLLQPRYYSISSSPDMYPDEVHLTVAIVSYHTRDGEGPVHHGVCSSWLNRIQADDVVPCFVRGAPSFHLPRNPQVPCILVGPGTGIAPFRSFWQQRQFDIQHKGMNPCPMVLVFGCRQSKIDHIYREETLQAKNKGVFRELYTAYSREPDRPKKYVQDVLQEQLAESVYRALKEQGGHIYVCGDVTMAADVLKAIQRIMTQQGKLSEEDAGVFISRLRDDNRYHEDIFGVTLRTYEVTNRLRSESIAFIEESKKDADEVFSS
In words: Co-IP of PSD-95-nNOS complex levels in the spinal dorsal horn after SNL. Format: in vivo. As to conditions: SNL rats, ZL006 10 mg/kg, i.v.

Experiment [6] has as its system neuropathic pain. Further details: method as in PMID 32632774. As to conditions: treatment of neuropathic pain, chronic use; cited from earlier work.
Experiment [7] relates to SNL-induced mechanical hyperalgesia. Put plainly: SNL-induced mechanical hyperalgesia, paw withdrawal threshold. Format: in vivo, rat. To be noted: SNL rats, ZL006 0.2 mg/d intrathecal infusion × 11 days. The protocol:
as §3, §1
For rats, the threshold for 50% paw withdrawal (50% PWT) response to mechanical stimulus was assessed through a dynamic plantar apparatus (Ugo Basile, Italy). The 50% PWT refers to that the probability of paw withdrawal response to repeated mechanical stimulus is 50%. Rats were placed individually in a plastic cage (17 × 15 × 15 cm) with a wire mesh bottom which allowed full access to the paws. Behavioral accommodation was allowed for 15-20 min until cage exploration and major grooming activities ceased. A maximal cut-off of 50g/50s was set to prevent tissue damage. To record the PWT in response to mechanical stimulus, each rat was measured five times with a 5-min interval, and the mean value was recorded after excluding maximal and minimum values. The experimental procedures were performed in a double-blind manner.

On to `O=C(O)c1ccc(NCc2cc(Cl)cc(Cl)c2O)cc1O` [ZL006], for which the mEPSCs result in experiment [1] is listed as “did not affect SNL-induced increase in miniature excitatory postsynaptic currents (mEPSCs)”. Also, in experiment [1] (vs vehicle), the “mIPSCs frequency and amplitude” value is “significantly lower than that in vehicle-treated rats”. In addition, the “Effect on SNL-induced thermal hyperalgesia” value in experiment [2] was “attenuated both mechanical and thermal hyperalgesia markedly in WT but not in nNOS^-/- mice”. The “Antinociceptive effect on thermal hyperalgesia during chronic use (tolerance)” value in experiment [3] is “decreased dramatically at d 7 and d 11, compared to d 1”. Besides, the “Effect on SNL-induced mechanical hyperalgesia” value in experiment [4] was “attenuated both mechanical and thermal hyperalgesia markedly in WT but not in nNOS^-/- mice”. The “PSD-95-nNOS complex level in the SDH” value in experiment [5] is given as “reversed the SNL-induced upregulation of PSD-95-nNOS interaction”. Moreover, the “Analgesic tolerance when used chronically” value in experiment [6] was “cause obvious analgesic tolerance”. Moreover, the “Antinociceptive effect on mechanical hyperalgesia during chronic use (tolerance)” value in experiment [7] was “decreased dramatically at d 7 and d 11, compared to d 1”.
